Measurements: patent US11077205B2, “Synthetic compound for improving efficiency of transfection” (Klinikum der Universität München, priority 2016, dated 2021)
Where no end group is shown, it is not given here. The star is where a group is joined. ξ: configuration not given here. Lipoyl(6ξ) = O=C(CCCCC1CCSS1)*

Tests used:
[1] = test system: 16HBE cells; test: In vitro transfection, Metridia luciferase assay in 16HBE cells; format: cell-based, human; details: for pDNA transfection efficiency of P704 ternary complex (in words): MetLuc pDNA, FIG. 14b
Procedure: (§1) Preparation of IVT-mRNA/pDNA containing binary and ternary complexes: Stock solutions of P704 (5 mg/ml) and synthetic compound (1 mg/ml) were prepared in nuclease-free water (NF water) and stored at 4° C. P704 based binary complexes (P704/IVT-mRNA or P704/pDNA) were prepared by mixing equal volumes of diluted P704 stock solution with IVT-mRNA or pDNA solution at the desired concentration in 2× Tyrode's solution. Ternary complexes were generated via two-steps incubation. Briefly, P704 solutions at certain concentration (defined as weight/weight (w/w) ratio between P704 and nucleic acids) in NF-water were mixed with equal volume of synthetic compound solution at specific concentration (defined as N/P ratio, namely the […] between nitrogen residues in synthetic compound and nucleic acids phosphate groups). After 20 min incubation at room temperature (RT), same volumes of nucleic acid (IVT-mRNA or pDNA) solution in NF-water were added to the above P704/synthetic compound solution and mixed gently by pipetting up and down several times. Subsequently, complexes were incubated for another 20 min at RT prior to further use. IVT-mRNA or pDNA solutions in NF-water were complexed with brPEI (25 kDa) at an optimum N/P ratio, the resulting complexes were served as a control polyplex. As for control lipoplex, Lipofectamine® 2000 complexes were prepared according to the manufacturer's instructions using optimum concentration. In order to prepare DOTAP/DOPE liposomes, a lipid film was formed by removing the chloroform solvent in DOTAP/DOPE mixture solution under nitrogen atmosphere. The lipid film is hydrated with NF-water to make the final concentration 10 mM DOTAP/DOPE. The DOTAP/DOPE liposome formulation was formed by mixing 250 μl of pDNA encoding for firefly luciferase and cystic fibrosis transmembrane conductance regulator (fLUC-CFTR pDNA) (150 μg) containing solution and 250 μl diluted DOTAP/DOPE solution (190 μl of 10 mM DOTAP/DOPE liposome and 60 μl NF-water). The mix solution was incubated at RT for 20 min prior to further use.
In vitro transfection: For the luciferase assay, cells were seeded at a density of 1.8×10^4/well (BEAS-2B) or 3.5×10^4/well (16HBE) in 96-well plates 24 h before transfection to reach 60-80% confluence. Following removal of growth medium, cells were rinsed with DPBS (Gibco, Germany). 170 μl of fresh serum-free OptiMEM (Gibco, Germany) were added per well, and subsequently 30 μl of IVT-mRNA or pDNA containing complexes prepared, as described above, corresponding to 400 ng IVT-mRNA or pDNA per well, were added in replicates of five. After 4 h of incubation at 37° C. in a humidified 5% CO2-containing atmosphere, the transfection medium was replaced with culture medium supplemented with 10% FBS and 1% (v/v) penicillin/streptomycin. Luciferase activity in 50 μl supernatants from transfected cells was assayed with Metridia luciferase substrate (coelenterazine, Invivogen, France) after 24 h using a FLUOstar microplate reader (BMG Labtech, Germany) and its activity is expressed in relative light units (RLU). In all cases each sample was measured on at least two other occasions to ensure the reproducibility of the data. […]
(§2) The concentration of P704 in ternary complexes for treatment of BEAS-2B cells was 50 (w/w) and the concentration of P704 in ternary complexes for treatment of 16HBE cells was 63 (w/w). The N/P ratios of the compounds in ternary complexes were as follows:
16HBE cells: Compound 0 (DL) at 20, compounds 1 and 11 at 15, compounds 2 and 3 at 10, compounds 4, 6, 8, and 9 at 5, compounds 5, 7, and 10 at 2.5.
The same transfection procedure as described above was applied.
The concentration of P704 in ternary complexes was 63 (w/w). The N/P ratio of the compounds in certain ternary complexes was as follows:
16HBE cells: Compound 1, 8, and 11 at 20; compound 0 (DL) and 3 at 10; compound 2 at 7.5; compounds 4, 6, 9, and 10 at 5, compounds 5 and 7 at 2.5. […]

[2] = test system: BEAS-2B cells; test: In vitro transfection, Metridia luciferase assay in BEAS-2B cells; format: cell-based, human; details: for pDNA transfection efficiency of P704 ternary complex (in words): MetLuc pDNA, P704 50 (w/w), FIG. 14a
Procedure: as §1
In vitro transfection: For the luciferase assay, cells were seeded at a density of 1.8×10^4/well (BEAS-2B) or 3.5×10^4/well (16HBE) in 96-well plates 24 h before transfection to reach 60-80% confluence. Following removal of growth medium, cells were rinsed with DPBS (Gibco, Germany). 170 μl of fresh serum-free OptiMEM (Gibco, Germany) were added per well, and subsequently 30 μl of IVT-mRNA or pDNA containing complexes prepared, as described above, corresponding to 400 ng IVT-mRNA or pDNA per well, were added in replicates of five. After 4 h of incubation at 37° C. in a humidified 5% CO2-containing atmosphere, the transfection medium was replaced with culture medium supplemented with 10% FBS and 1% (v/v) penicillin/streptomycin. Luciferase activity in 50 μl supernatants from transfected cells was assayed with Metridia luciferase substrate (coelenterazine, Invivogen, France) after 24 h using a FLUOstar microplate reader (BMG Labtech, Germany) and its activity is expressed in relative light units (RLU). In all cases each sample was measured on at least two other occasions to ensure the reproducibility of the data.
The same transfection procedure as described above was applied. Luciferase activity was expressed in RLU. The data are given as the mean±standard deviation (SD) of the mean (n>5) in FIGS. 12a to 12k.
as §2
BEAS-2B cells: Compound 0 (DL) at 30, compound 1 at 20, compounds 3 and 11 at 15, compounds 4 and 6 at 10, compounds 2 and 9 at 5, compounds 5, 7, 8 and 10 at 2.5.
The same transfection procedure as described above was applied. Luciferase activity was expressed in RLU. […]

[3] = normalized: most hydrophobic residue 100, glycine 0, cited from earlier work; for hydrophobicity index At pH 2: from Sereda et al. 1994; for hydrophobicity index At pH 7: from Monera et al. 1995
[4] = test system: BEAS-2B cells; test: In vitro transfection, Metridia luciferase assay in BEAS-2B cells; format: cell-based, human; details: for pDNA expression compared with compound 0 containing ternary complexes: day 3
[5] = test system: 16HBE cells; test: In vitro transfection, Metridia luciferase assay in 16HBE cells; format: cell-based, human
[6] = test system: airway epithelium cells; test: In vitro transfection study on cultured airway epithelium cells (luciferase, RLU/mg cellular protein); format: cell-based; details: ternary complexes formed by P704, a nucleic acid and the compound
Procedure: In vitro transfection: For the luciferase assay, cells were seeded at a density of 1.8×10^4/well (BEAS-2B) or 3.5×10^4/well (16HBE) in 96-well plates 24 h before transfection to reach 60-80% confluence. Following removal of growth medium, cells were rinsed with DPBS (Gibco, Germany). 170 μl of fresh serum-free OptiMEM (Gibco, Germany) were added per well, and subsequently 30 μl of IVT-mRNA or pDNA containing complexes prepared, as described above, corresponding to 400 ng IVT-mRNA or pDNA per well, were added in replicates of five. After 4 h of incubation at 37° C. in a humidified 5% CO2-containing atmosphere, the transfection medium was replaced with culture medium supplemented with 10% FBS and 1% (v/v) penicillin/streptomycin. […] assayed with Metridia luciferase substrate (coelenterazine, Invivogen, France) after 24 h using a FLUOstar microplate reader (BMG Labtech, […]). In all cases each sample was measured on at least two other occasions to ensure the reproducibility of the data.

[7] = MetLuc pDNA, P704 ternary complex, day 3, optimum composition
[8] = MetLuc mRNA, optimum composition

In the case of `O=C(O)CCCCC1CCSS1` (racemic) [compound 2, DL-lipoic acid, reference compound], the “IVT-mRNA transfection efficiency of P704 ternary complex (in words)” value ([1]; MetLuc mRNA, P704 63 (w/w), optimum N/P, FIG. 17b) is reported as “rather low transfection efficiency”, the “pDNA transfection efficiency of P704 ternary complex (in words)” value (“pDNA transfection efficiency” below) ([1]; P704 63 (w/w), optimum N/P) is reported as “rather low transfection efficiency” and the “IVT-mRNA transfection efficiency of P704 ternary complex (in words)” value ([2]; MetLuc mRNA, P704 63 (w/w), optimum N/P, FIG. 17a) is reported as “rather low transfection efficiency”. For the same molecule, the “pDNA transfection efficiency” value ([2]; optimum N/P) was “rather low transfection efficiency”.

In the case of `C[C@H](N)C(=O)O` [Alanine (ala), Alanine], the “hydrophobicity index At pH 2” value [3] is given as 47 and the “hydrophobicity index At pH 7” value [3] is given as 41.

For `NC(=O)C[C@H](N)C(=O)O` [Asparagine (asn), Asparagine], the “hydrophobicity index At pH 2” value [3] is listed as −41 and the “hydrophobicity index At pH 7” value [3] is listed as −28.

In the case of `N[C@@H](CS)C(=O)O` [Cysteine (cys), Cysteine], the “hydrophobicity index At pH 2” value [3] is given as 52 and the “hydrophobicity index At pH 7” value [3] is given as 49.

In the case of `N[C@@H](Cc1c[nH]cn1)C(=O)O` [Histidine (his), Histidine], the “hydrophobicity index At pH 2” value [3] is given as −42 and the “hydrophobicity index At pH 7” value [3] is given as 8.

In the case of `CC[C@H](C)[C@H](N)C(=O)O` [Isoleucine (ile), Isoleucine], the “hydrophobicity index At pH 2” value [3] is listed as 100 and the “hydrophobicity index At pH 7” value [3] is listed as 99.

In the case of `NCCCC[C@H](N)C(=O)O` [Lysine (lys), Lysine], the “hydrophobicity index At pH 2” value [3] is listed as −37 and the “hydrophobicity index At pH 7” value [3] is listed as −23.

In the case of `CSCC[C@H](N)C(=O)O` [Methionine (met), Methionine], the “hydrophobicity index At pH 2” value [3] is given as 74 and the “hydrophobicity index At pH 7” value [3] is given as 74.

For `N[C@@H](Cc1ccccc1)C(=O)O` [Phenylalanine (phe), Phenylalanine], the “hydrophobicity index At pH 2” value [3] is given as 92 and the “hydrophobicity index At pH 7” value [3] is given as 100.

In the case of `N[C@@H](Cc1c[nH]c2ccccc12)C(=O)O` [Tryptophan (trp), Tryptophan], the “hydrophobicity index At pH 2” value [3] is listed as 84 and the “hydrophobicity index At pH 7” value [3] is listed as 97.

In the case of `N[C@@H](Cc1ccc(O)cc1)C(=O)O` [Tyrosine (tyr), Tyrosine], the “hydrophobicity index At pH 2” value [3] is given as 49 and the “hydrophobicity index At pH 7” value [3] is given as 63.

In the case of `CC(C)[C@H](N)C(=O)O` [Valine (val), Valine], the “hydrophobicity index At pH 2” value [3] is given as 79 and the “hydrophobicity index At pH 7” value [3] is given as 76.

In the case of “DL-lipoic acid-WKKKKRRRRRKKKK-GACSERSMNFCG ({Lipoyl(6ξ)}-WKKKKRRRRRKKKKGACSERSMNFCG; cysteine pairing not given here) [compound 4]”, the “pDNA transfection efficiency” value ([2]; optimum N/P) is reported as “similar”.

With “DL-lipoic acid-WKKKKRRRRRKKKK-GACYGLPHKFCG ({Lipoyl(6ξ)}-WKKKKRRRRRKKKKGACYGLPHKFCG; cysteine pairing not given here) [compound 5]” the “pDNA expression compared with compound 0 containing ternary complexes” value [4] was “slightly better” and the “pDNA transfection efficiency” value ([2]; optimum N/P) was “similar”.

In the case of “DL-lipoic acid-WKKRRRRRRRRKK-GACYGLPHKFCG ({Lipoyl(6ξ)}-WKKRRRRRRRRKKGACYGLPHKFCG; cysteine pairing not given here) [compound 7]”, the “pDNA expression compared with compound 0 containing ternary complexes” value [4] is reported as “slightly better” and the “pDNA transfection efficiency” value ([2]; optimum N/P) is reported as “similar”.

For “DL-lipoic acid-WKKRRRRRRRRRKK-GACSERSMNFCG ({Lipoyl(6ξ)}-WKKRRRRRRRRRKKGACSERSMNFCG; cysteine pairing not given here) [compound 6]”, the “pDNA transfection efficiency” value ([1]; P704 63 (w/w), optimum N/P) was “overwhelming signals”.

In the case of “DL-lipoic acid-WLHHHKKLLHHHKKL-GACSERSMNFCG ({Lipoyl(6ξ)}-WLHHHKKLLHHHKKLGACSERSMNFCG; cysteine pairing not given here) [compound 8]”, the “luciferase expression of ternary complexes with P304 and MetLuc mRNA” value ([5]; P304 2000 (w/w), high N/P ratio, even higher than compound 9, FIG. 25a) is reported as “rather high luciferase expression”.

With “NH2-VKRKKKPKKRRRRKK-CONH2 (H-VKRKKKPKKRRRRKK-NH2) [compound 1]” the “pDNA transfection, share of maximum signal intensity of compound 0 counterpart” value [4, 7] was 7%, the “pDNA transfection, share of maximum signal intensity of compound 0 counterpart” value [5, 7] was “half” and the “IVT-mRNA transfection efficiency relative to P704/compound 0/IVT-mRNA complex” value [1, 8] was “one third”. For the same molecule, the “IVT-mRNA transfection efficiency relative to P704/compound 0/IVT-mRNA complex” value [2, 8] was “one third”.

In the case of “NH2-VKRKKKPKKRRRRKKWK(R-lipoic acid)-CONH2 (H-VKRKKKPKKRRRRKKWK(R‑lipoic acid)-NH2) [compound 0 (R)]”, the “transfection efficiencies of ternary complexes with compound 0 (DL) versus compound 0 (R)” value [6] is reported as “similar”.
